Laboratory results taken from the supplement of paper PMC9663587.

What was measured:
[1] = compound: CC(=O)c1c(C)c2cnc(Nc3ccc(N4CCNCC4)cn3)nc2n(C2CCCC2)c1=O; assay: increase in dead-cell fraction, 72 h; higher = more death;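 also: breast cancer cell lines in 384-well plates, stained with Hoechst plus LIVE/DEAD far red dye and imaged, cells above an LDR intensity threshold counted dead, Hoechst-negative corpses included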
[2] = compound: CCN1CCN(Cc2ccc(Nc3ncc(F)c(-c4cc(F)c5nc(C)n(C(C)C)c5c4)n3)nc2)CC1; assay: as above
Neratinib/HKI272 [3] = compound: T1, CCOc1cc2ncc(C#N)c(Nc3ccc(OCc4ccccn4)c(Cl)c3)c2cc1NC(=O)/C=C/CN(C)C [Neratinib/HKI272]; assay: as above
[4] = compound: CCc1cnn2c(NCc3ccc[n+]([O-])c3)cc(N3CCCC[C@H]3CCO)nc12; assay: as above
Neratinib/HKI272 [5] = compound: T1, Neratinib/HKI272; assay: GR value, 72 h; higher = faster growth (1 = untreated, <0 = killing);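 also: breast cancer and non-malignant breast epithelial lines, nine half-log doses, viable cells counted by Hoechst and LIVE/DEAD dye imaging versus time-zero plates and DMSO controls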

Q: With HCC1428 as the cell line, how does the “increase in dead-cell fraction” value ([1]; 0.0003162 µM) read?
A: The value was 0.005.

Q: What about the “increase in dead-cell fraction” value ([1]; 0.001 µM) of the same cell line?
A: The value was -0.0004.

Q: And the “increase in dead-cell fraction” value ([1]; 0.003162 µM)?
A: The value was -0.0052.

Q: What about the “increase in dead-cell fraction” value ([1]; 0.01 µM) of the same cell line?
A: The value was 0.0068.

Q: What about the “increase in dead-cell fraction” value ([1]; 0.03162 µM) of the same cell line?
A: The value was 0.0017.

Q: What about the “increase in dead-cell fraction” value ([1]; 0.1 µM) of the same cell line?
A: Its value is 0.0007.

Q: What about the “increase in dead-cell fraction” value ([1]; 0.3162 µM) of the same cell line?
A: The value was 0.0117.

Q: And the “increase in dead-cell fraction” value ([1]; 1 µM)?
A: Its value is 0.0083.

Q: What about the “increase in dead-cell fraction” value ([1]; 3.162 µM) of the same cell line?
A: The value was 0.0097.

Q: What about the “increase in dead-cell fraction” value ([2]; 0.001 µM) of the same cell line?
A: Its value is -0.0074.

Q: What about the “increase in dead-cell fraction” value ([2]; 0.003162 µM) of the same cell line?
A: Its value is 0.0007.

Q: And the “increase in dead-cell fraction” value ([2]; 0.01 µM)?
A: The value was 0.0093.

Q: And the “increase in dead-cell fraction” value ([2]; 0.03162 µM)?
A: The value was 0.0115.

Q: What about the “increase in dead-cell fraction” value ([2]; 0.1 µM) of the same cell line?
A: Its value is 0.0154.

Q: And the “increase in dead-cell fraction” value ([2]; 0.3162 µM)?
A: The value was 0.0035.

Q: And the “increase in dead-cell fraction” value ([2]; 1 µM)?
A: Its value is 0.0027.

Q: And the “increase in dead-cell fraction” value ([2]; 3.162 µM)?
A: Its value is 0.0224.

Q: What about the “increase in dead-cell fraction” value ([2]; 10 µM) of the same cell line?
A: Its value is 0.0617.

Q: And the “increase in dead-cell fraction” value (Neratinib/HKI272 [3]; 0.0003162 µM)?
A: Its value is 0.0076.

Q: What about the “increase in dead-cell fraction” value (Neratinib/HKI272 [3]; 0.001 µM) of the same cell line?
A: The value was 0.0073.

Q: And the “increase in dead-cell fraction” value (Neratinib/HKI272 [3]; 0.003162 µM)?
A: Its value is 0.0021.

Q: What about the “increase in dead-cell fraction” value (Neratinib/HKI272 [3]; 0.01 µM) of the same cell line?
A: The value was -0.0004.

Q: What about the “increase in dead-cell fraction” value (Neratinib/HKI272 [3]; 0.03162 µM) of the same cell line?
A: The value was 0.0008.

Q: And the “increase in dead-cell fraction” value (Neratinib/HKI272 [3]; 0.1 µM)?
A: Its value is 0.0018.

Q: What about the “increase in dead-cell fraction” value (Neratinib/HKI272 [3]; 0.3162 µM) of the same cell line?
A: The value was 0.0002.

Q: And the “increase in dead-cell fraction” value (Neratinib/HKI272 [3]; 1 µM)?
A: The value was 0.0203.

Q: And the “increase in dead-cell fraction” value (Neratinib/HKI272 [3]; 3.162 µM)?
A: The value was 0.217.

Q: What about the “increase in dead-cell fraction” value ([4]; 0.0001 µM) of the same cell line?
A: Its value is 0.0044.

Q: What about the “increase in dead-cell fraction” value ([4]; 0.0003162 µM) of the same cell line?
A: Its value is 0.0006.

Q: What about the “increase in dead-cell fraction” value ([4]; 0.001 µM) of the same cell line?
A: Its value is 0.0016.

Q: What about the “increase in dead-cell fraction” value ([4]; 0.003162 µM) of the same cell line?
A: Its value is -0.0135.

Q: And the “increase in dead-cell fraction” value ([4]; 0.01 µM)?
A: Its value is 0.0043.

Q: And the “increase in dead-cell fraction” value ([4]; 0.03162 µM)?
A: The value was 0.283.

Q: And the “increase in dead-cell fraction” value ([4]; 0.1 µM)?
A: Its value is 0.562.

Q: And the “increase in dead-cell fraction” value ([4]; 0.3162 µM)?
A: Its value is 0.64.

Q: What about the “increase in dead-cell fraction” value ([4]; 1 µM) of the same cell line?
A: Its value is 0.687.

Q: What about the GR value (Neratinib/HKI272 [5]; 0.0003162 µM) of the same cell line?
A: Its GR value is 1.08 GR.

Q: And the GR value (Neratinib/HKI272 [5]; 0.001 µM)?
A: The GR value was 1.03 GR.

Q: What about the GR value (Neratinib/HKI272 [5]; 0.003162 µM) of the same cell line?
A: Its GR value is 1.05 GR.

Q: And the GR value (Neratinib/HKI272 [5]; 0.01 µM)?
A: Its GR value is 0.992 GR.

Q: And the GR value (Neratinib/HKI272 [5]; 0.03162 µM)?
A: Its GR value is 1.1 GR.

Q: What about the GR value (Neratinib/HKI272 [5]; 0.1 µM) of the same cell line?
A: Its GR value is 0.964 GR.

Q: What about the GR value (Neratinib/HKI272 [5]; 0.3162 µM) of the same cell line?
A: Its GR value is 0.922 GR.

Q: What about the GR value (Neratinib/HKI272 [5]; 1 µM) of the same cell line?
A: Its GR value is 0.656 GR.

Q: What about the GR value (Neratinib/HKI272 [5]; 3.162 µM) of the same cell line?
A: Its GR value is -0.0337 GR.
